Measured values from patent publication US9695198B2, “Factor IXa inhibitors” (MERCK SHARP & DOHME CORP., priority 2012, dated 2017).

Target: Factor IXa (Homo sapiens, UniProt P00740)
Assay: Determination of inhibitory activity against Factor IXa (cleavage of fluorescent peptide CH3SO2-D-CHG-Gly-Arg-AFC)
Type: biochemical
Conditions: Factor IXa Inhibition table; low enzyme format; read-out: FIXa Low Enzyme
Method: Determination of Inhibitory Activity Against Factor IXa
Formation of a clot to stem bleeding at a site of blood vessel injury involves the coordinated activity of a group of plasma proteins that initiate and propagate fibrin formation and subsequently protect fibrin from premature degradation. Factor IX is a key component of the plasma system that forms a fibrin clot at a site of vascular injury. The activity of Factor IXa is measured by monitoring the cleavage of the fluorescent peptide, CH3SO2-D-CHG-Gly-Arg-AFC.AcOH (“CHG” is cyclohexyl-glycine and “AFC” is trifluoro aminomethyl coumarin). Factor IXa cleaves the amide bond between Arg and AFC, thereby releasing the AFC fluorophore. The free AFC can be detected with a fluorescence detector at an excitation wavelength of 405 nm and emission wavelength of 510 nm.

Factor IXa, sequence (P00740 227-461 limits assumed): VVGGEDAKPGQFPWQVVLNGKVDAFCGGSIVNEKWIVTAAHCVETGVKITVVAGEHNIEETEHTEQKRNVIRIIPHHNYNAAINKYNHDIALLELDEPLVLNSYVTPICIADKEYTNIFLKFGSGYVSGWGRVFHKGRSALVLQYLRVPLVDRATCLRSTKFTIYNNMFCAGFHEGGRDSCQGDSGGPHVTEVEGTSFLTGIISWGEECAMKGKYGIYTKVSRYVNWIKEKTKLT
Factor IXa, sequence (P00740 47-191 partner limits assumed): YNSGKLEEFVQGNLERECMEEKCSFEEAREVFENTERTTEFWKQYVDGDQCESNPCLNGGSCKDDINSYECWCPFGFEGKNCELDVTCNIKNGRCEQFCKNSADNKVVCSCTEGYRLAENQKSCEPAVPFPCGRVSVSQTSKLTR

Row | IC50 | Compound
1 | 0.0145 µM | Nc1noc2c1ccc1[nH]c([C@H](O)[C@H]3OCCN(c4ccn(-c5ccncc5)n4)C3=O)nc(=O)c12 [Example 1, 3-Amino-7-((S)-hydroxy((R)-3-oxo-4-(1-(pyridin-4-yl)-1H-pyrazol-3-yl)morpholin-2-yl)methyl)isoxazolo[5,4-f]quinazolin-9(6H)-one]
2 | 0.00465 µM | Nc1nsc2c1ccc1[nH]c([C@H](O)[C@H]3OCCN(c4ccn(-c5ccncc5)n4)C3=O)nc(=O)c12 [Example 2, (R)-2-((S)-(3-Amino-9-oxo-6,9-dihydroisothiazolo[5,4-f]quinazolin-7-yl)(hydroxy)methyl)-4-(1-(pyridin-4-yl)-1H-pyrazol-3-yl)morpholin-3-one]
3 | 0.0113 µM | Cc1cc(N2CCO[C@H]([C@@H](O)c3nc(=O)c4c(ccc5c(N)nsc54)[nH]3)C2=O)nn1-c1ccncc1 [Example 3, (R)-2-((S)-(3-Amino-9-oxo-6,9-dihydroisothiazolo[5,4-f]quinazolin-7-yl)(hydroxy)methyl)-4-(5-methyl-1-(pyridin-4-yl)-1H-pyrazol-3-yl)morpholin-3-one]
4 | 0.0586 µM | Cc1cc(N2CCO[C@H]([C@@H](O)c3nc(=O)c4c(ccc5c(N)nsc54)[nH]3)C2=O)nn1-c1cccnc1 [Example 4, (R)-2-((S)-(3-Amino-9-oxo-6,9-dihydroisothiazolo[5,4-f]quinazolin-7-yl)(hydroxy)methyl)-4-(5-methyl-1-(pyridin-3-yl)-1H-pyrazol-3-yl)morpholin-3-one]
5 | 0.0108 µM | COc1cc(-n2ccc(N3CCO[C@H]([C@@H](O)c4nc(=O)c5c(ccc6c(N)nsc65)[nH]4)C3=O)n2)ccn1 [Example 5, (R)-2-((S)-(3-Amino-9-oxo-6,9-dihydroisothiazolo[5,4-f]quinazolin-7-yl)(hydroxy)methyl)-4-(1-(2-methoxypyridin-4-yl)-1H-pyrazol-3-yl)morpholin-3-one]
6 | 0.0582 µM | COc1cc(-n2nc(N3CCO[C@H]([C@@H](O)c4nc(=O)c5c(ccc6c(N)nsc65)[nH]4)C3=O)cc2C)ccn1 [Example 6, (R)-2-((S)-(3-Amino-9-oxo-6,9-dihydroisothiazolo[5,4-f]quinazolin-7-yl)(hydroxy)methyl)-4-(1-(2-methoxypyridin-4-yl)-5-methyl-1H-pyrazol-3-yl)morpholin-3-one]
7 | 0.00937 µM | Nc1nsc2c1ccc1[nH]c([C@H](O)[C@H]3OCCN(c4ccn(-c5ccnc(C(F)(F)F)c5)n4)C3=O)nc(=O)c12 [Example 7, (R)-2-((S)-(3-Amino-9-oxo-6,9-dihydroisothiazolo[5,4-f]quinazolin-7-yl)(hydroxy)methyl)-4-(1-(2-(trifluoromethyl)pyridin-4-yl)-1H-pyrazol-3-yl)morpholin-3-one]
8 | 0.0178 µM | Cc1cc(N2CCO[C@H]([C@@H](O)c3nc(=O)c4c(ccc5c(N)nsc54)[nH]3)C2=O)nn1-c1ccnc(C(F)(F)F)c1 [Example 8, (R)-2-((S)-(3-Amino-9-oxo-6,9-dihydroisothiazolo[5,4-f]quinazolin-7-yl)(hydroxy)methyl)-4-(5-methyl-1-(2-(trifluoromethyl)pyridin-4-yl)-1H-pyrazol-3-yl)morpholin-3-one]
9 | 0.00187 µM | Nc1nsc2c1ccc1[nH]c([C@H](O)[C@H]3OCCN(c4ccn(-c5ccnnc5)n4)C3=O)nc(=O)c12 [Example 9, (R)-2-((S)-(3-Amino-9-oxo-6,9-dihydroisothiazolo[5,4-f]quinazolin-7-yl)(hydroxy)methyl)-4-(1-(pyridazin-4-yl)-1H-pyrazol-3-yl)morpholin-3-one]
10 | 0.00304 µM | Nc1nsc2c1ccc1[nH]c([C@H](O)[C@H]3OCCN(c4ccn(-c5ccc(=O)n(C(F)F)c5)n4)C3=O)nc(=O)c12 [Example 10, (R)-2-((S)-(3-Amino-9-oxo-6,9-dihydroisothiazolo[5,4-f]quinazolin-7-yl)(hydroxy)methyl)-4-(1-(1-(difluoromethyl)-6-oxo-1,6-dihydropyridin-3-yl)-1H-pyrazol-3-yl)morpholin-3-one]
11 | 0.0521 µM | Cc1cc(N2CCO[C@H]([C@@H](O)c3nc(=O)c4c(ccc5c(N)nsc54)[nH]3)C2=O)nn1-c1ccc(F)cc1 [Example 11, (R)-2-((S)-(3-Amino-9-oxo-6,9-dihydroisothiazolo[5,4-f]quinazolin-7-yl)(hydroxy)methyl)-4-(1-(4-fluorophenyl)-5-methyl-1H-pyrazol-3-yl)morpholin-3-one]
12 | 0.00307 µM | N#Cc1ccc(-n2ccc(N3CCO[C@H]([C@@H](O)c4nc(=O)c5c(ccc6c(N)nsc65)[nH]4)C3=O)n2)cc1 [Example 12, 4-(3-((R)-2-((S)-(3-Amino-9-oxo-6,9-dihydroisothiazolo[5,4-f]quinazolin-7-yl)(hydroxy)methyl)-3-oxomorpholino)-1H-pyrazol-1-yl)benzonitrile]
13 | 0.0283 µM | N#Cc1ccc(-n2ccc(N3CCO[C@H]([C@@H](O)c4nc(=O)c5c(ccc6c(N)nsc65)[nH]4)C3=O)n2)cc1C(F)(F)F [Example 13, 4-(3-((R)-2-((S)-(3-Amino-9-oxo-6,9-dihydroisothiazolo[5,4-f]quinazolin-7-yl)(hydroxy)methyl)-3-oxomorpholino)-1H-pyrazol-1-yl)-2-(trifluoromethyl)benzonitrile]
14 | 0.0437 µM | Cc1cc(N2CCO[C@H]([C@@H](O)c3nc(=O)c4c(ccc5c(N)nsc54)[nH]3)C2=O)nn1C [Example 14, (R)-2-((S)-(3-Amino-9-oxo-6,9-dihydroisothiazolo[5,4-f]quinazolin-7-yl)(hydroxy)methyl)-4-(1,5-dimethyl-1H-pyrazol-3-yl)morpholin-3-one]
15 | 0.0398 µM | Nc1nsc2c1ccc1[nH]c([C@H](O)[C@H]3OCCN(c4ccn(C5CC5)n4)C3=O)nc(=O)c12 [Example 15, (R)-2-((S)-(3-Amino-9-oxo-6,9-dihydroisothiazolo[5,4-f]quinazolin-7-yl)(hydroxy)methyl)-4-(1-cyclopropyl-1H-pyrazol-3-yl)morpholin-3-one]
16 | 0.0319 µM | Cc1cc(N2CCO[C@H]([C@@H](O)c3nc(=O)c4c(ccc5c(N)nsc54)[nH]3)C2=O)nn1C1CCOCC1 [Example 16, (R)-2-((S)-(3-Amino-9-oxo-6,9-dihydroisothiazolo[5,4-f]quinazolin-7-yl)(hydroxy)methyl)-4-(5-methyl-1-(tetrahydro-2H-pyran-4-yl)-1H-pyrazol-3-yl)morpholin-3-one]
17 | 0.0437 µM | Nc1nsc2c1ccc1[nH]c([C@H](O)[C@H]3OCCN(c4cccc(C(F)(F)F)n4)C3=O)nc(=O)c12 [Example 17, (R)-2-((S)-(3-Amino-9-oxo-6,9-dihydroisothiazolo[5,4-f]quinazolin-7-yl)(hydroxy)methyl)-4-(6-(trifluoromethyl)pyridin-2-yl)morpholin-3-one]
18 | 0.0442 µM | Nc1nsc2c1ccc1[nH]c([C@H](O)[C@H]3OCCN(c4nc(C(F)(F)F)ccc4F)C3=O)nc(=O)c12 [Example 18, (R)-2-((S)-(3-Amino-9-oxo-6,9-dihydroisothiazolo[5,4-f]quinazolin-7-yl)(hydroxy)methyl)-4-(3-fluoro-6-(trifluoromethyl)pyridin-2-yl)morpholin-3-one]
19 | 0.0833 µM | Nc1nsc2c1ccc1[nH]c([C@H](O)[C@H]3OCCN(c4cccc(OC(F)F)n4)C3=O)nc(=O)c12 [Example 19, (R)-2-((S)-(3-Amino-9-oxo-6,9-dihydroisothiazolo[5,4-f]quinazolin-7-yl)(hydroxy)methyl)-4-(6-(difluoromethoxy)pyridin-2-yl)morpholin-3-one]
20 | 0.0886 µM | Nc1nsc2c1ccc1[nH]c([C@H](O)[C@H]3OCCN(c4cccc(C5CC5)n4)C3=O)nc(=O)c12 [Example 20, (R)-2-((S)-(3-Amino-9-oxo-6,9-dihydroisothiazolo[5,4-f]quinazolin-7-yl)(hydroxy)methyl)-4-(6-cyclopropylpyridin-2-yl)morpholin-3-one]
21 | 0.0123 µM | CC(C)(O)c1cccc(N2CCO[C@H]([C@@H](O)c3nc(=O)c4c(ccc5c(N)nsc54)[nH]3)C2=O)n1 [Example 21, (R)-2-((S)-(3-Amino-9-oxo-6,9-dihydroisothiazolo[5,4-f]quinazolin-7-yl)(hydroxy)methyl)-4-(6-(2-hydroxypropan-2-yl)pyridin-2-yl)morpholin-3-one]
22 | 0.0256 µM | CC(C)(O)c1nc(N2CCO[C@H]([C@@H](O)c3nc(=O)c4c(ccc5c(N)nsc54)[nH]3)C2=O)ccc1C(F)(F)F [Example 22, (R)-2-((S)-(3-Amino-9-oxo-6,9-dihydroisothiazolo[5,4-f]quinazolin-7-yl)(hydroxy)methyl)-4-(6-(2-hydroxypropan-2-yl)-5-(trifluoromethyl)pyridin-2-yl)morpholin-3-one]
23 | 0.0315 µM | CC(=O)OC1(c2cccc(N3CCO[C@H]([C@@H](O)c4nc(=O)c5c(ccc6c(N)nsc65)[nH]4)C3=O)n2)CCC1 [Example 23, 1-(6-((R)-2-((S)-(3-Amino-9-oxo-6,9-dihydroisothiazolo[5,4-f]quinazolin-7-yl)(hydroxy)methyl)-3-oxomorpholino)pyridin-2-yl)cyclobutyl acetate]
24 | 0.0248 µM | Nc1nsc2c1ccc1[nH]c([C@H](O)[C@H]3OCCN(c4cccc(C5(O)CCC5)n4)C3=O)nc(=O)c12 [Example 24, (R)-2-((S)-(3-Amino-9-oxo-6,9-dihydroisothiazolo[5,4-f]quinazolin-7-yl)(hydroxy)methyl)-4-(6-(1-hydroxycyclobutyl)pyridin-2-yl)morpholin-3-one]
25 | 0.0118 µM | Nc1nsc2c1ccc1[nH]c([C@H](O)[C@H]3OCCN(c4cccc(C(O)C(F)(F)F)n4)C3=O)nc(=O)c12 (stereo partly drawn) [Example 25, (2R)-2-((S)-(3-Amino-9-oxo-6,9-dihydroisothiazolo[5,4-f]quinazolin-7-yl)(hydroxy)methyl)-4-(6-(2,2,2-trifluoro-1-hydroxyethyl)pyridin-2-yl)morpholin-3-one]
